{
  "source": "paper PMC8037182",
  "about": "“Solvothermal Synthesis of Multiple Dihydropyrimidinones at a Time as Inhibitors of Eg5” (Molecules, 2021)",
  "key": {"L929 cell line": {"system": "L929 cell line", "assay": "Cytotoxicity MTS assay, L929 cell line", "type": "cell-based", "conditions": "L929 cell line", "in_short": "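Cells were seeded at 1000 per well, allowed 24 h, then exposed to compounds at final concentrations of 0.5 to 100 µM for 24 h, with 0.025% DMSO as blank. MTS reagent was added for 2 h at 37 °C and absorbance read at 490 nm. IC50 came from non-linear regression of viability against concentration.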"}},
  "data": [
    {"smiles": "CCOc1ccccc1C1NC(=S)NC(C)=C1C(=O)Nc1ccc(Cl)cc1", "note": "(stereo not shown) [C9]", "values": [
      {"measurement": "melting point", "result": "253 to 257", "unit": "°C"},
      {"measurement": "OD490 values, Mean", "setting": "L929 cell line; 0.5μM, first assay", "result": 1.3120},
      {"measurement": "OD490 values, Well 1", "setting": "L929 cell line; 0.5μM, first assay", "result": 1.2051},
      {"measurement": "OD490 values, Well 2", "setting": "L929 cell line; 0.5μM, first assay", "result": 1.4334},
      {"measurement": "OD490 values, Well 3", "setting": "L929 cell line; 0.5μM, first assay", "result": 1.2976},
      {"measurement": "OD490 values, Mean", "setting": "L929 cell line; 0.5μM, second assay", "result": 1.7414},
      {"measurement": "OD490 values, Well 1", "setting": "L929 cell line; 0.5μM, second assay", "result": 1.7956},
      {"measurement": "OD490 values, Well 2", "setting": "L929 cell line; 0.5μM, second assay", "result": 1.7365},
      {"measurement": "OD490 values, Well 3", "setting": "L929 cell line; 0.5μM, second assay", "result": 1.6920},
      {"measurement": "OD490 values, Mean", "setting": "L929 cell line; 0.5μM, third assay", "result": 1.5324},
      {"measurement": "OD490 values, Well 1", "setting": "L929 cell line; 0.5μM, third assay", "result": 1.5628},
      {"measurement": "OD490 values, Well 2", "setting": "L929 cell line; 0.5μM, third assay", "result": 1.4792},
      {"measurement": "OD490 values, Well 3", "setting": "L929 cell line; 0.5μM, third assay", "result": 1.5552},
      {"measurement": "OD490 values, Mean", "setting": "L929 cell line; 1μM, first assay", "result": 1.2882},
      {"measurement": "OD490 values, Well 1", "setting": "L929 cell line; 1μM, first assay", "result": 1.1921},
      {"measurement": "OD490 values, Well 2", "setting": "L929 cell line; 1μM, first assay", "result": 1.2906},
      {"measurement": "OD490 values, Well 3", "setting": "L929 cell line; 1μM, first assay", "result": 1.3820},
      {"measurement": "OD490 values, Mean", "setting": "L929 cell line; 1μM, second assay", "result": 1.7491},
      {"measurement": "OD490 values, Well 1", "setting": "L929 cell line; 1μM, second assay", "result": 1.7526},
      {"measurement": "OD490 values, Well 2", "setting": "L929 cell line; 1μM, second assay", "result": 1.7963},
      {"measurement": "OD490 values, Well 3", "setting": "L929 cell line; 1μM, second assay", "result": 1.6985},
      {"measurement": "OD490 values, Mean", "setting": "L929 cell line; 1μM, third assay", "result": 1.5501},
      {"measurement": "OD490 values, Well 1", "setting": "L929 cell line; 1μM, third assay", "result": 1.5147},
      {"measurement": "OD490 values, Well 2", "setting": "L929 cell line; 1μM, third assay", "result": 1.6354},
      {"measurement": "OD490 values, Well 3", "setting": "L929 cell line; 1μM, third assay", "result": 1.5001},
      {"measurement": "OD490 values, Mean", "setting": "L929 cell line; 10μM, first assay", "result": 1.2539},
      {"measurement": "OD490 values, Well 1", "setting": "L929 cell line; 10μM, first assay", "result": 1.1842},
      {"measurement": "OD490 values, Well 2", "setting": "L929 cell line; 10μM, first assay", "result": 1.1521},
      {"measurement": "OD490 values, Well 3", "setting": "L929 cell line; 10μM, first assay", "result": 1.4254},
      {"measurement": "OD490 values, Mean", "setting": "L929 cell line; 10μM, second assay", "result": 1.6826},
      {"measurement": "OD490 values, Well 1", "setting": "L929 cell line; 10μM, second assay", "result": 1.6658},
      {"measurement": "OD490 values, Well 2", "setting": "L929 cell line; 10μM, second assay", "result": 1.5966},
      {"measurement": "OD490 values, Well 3", "setting": "L929 cell line; 10μM, second assay", "result": 1.7854},
      {"measurement": "OD490 values, Mean", "setting": "L929 cell line; 10μM, third assay", "result": 1.5957},
      {"measurement": "OD490 values, Well 1", "setting": "L929 cell line; 10μM, third assay", "result": 1.5987},
      {"measurement": "OD490 values, Well 2", "setting": "L929 cell line; 10μM, third assay", "result": 1.6038},
      {"measurement": "OD490 values, Well 3", "setting": "L929 cell line; 10μM, third assay", "result": 1.5847},
      {"measurement": "OD490 values, Mean", "setting": "L929 cell line; 25μM, first assay", "result": 1.1905},
      {"measurement": "OD490 values, Well 1", "setting": "L929 cell line; 25μM, first assay", "result": 1.1608},
      {"measurement": "OD490 values, Well 2", "setting": "L929 cell line; 25μM, first assay", "result": 1.2406},
      {"measurement": "OD490 values, Well 3", "setting": "L929 cell line; 25μM, first assay", "result": 1.1701},
      {"measurement": "OD490 values, Mean", "setting": "L929 cell line; 25μM, second assay", "result": 1.4962},
      {"measurement": "OD490 values, Well 1", "setting": "L929 cell line; 25μM, second assay", "result": 1.4563},
      {"measurement": "OD490 values, Well 2", "setting": "L929 cell line; 25μM, second assay", "result": 1.5624},
      {"measurement": "OD490 values, Well 3", "setting": "L929 cell line; 25μM, second assay", "result": 1.4698},
      {"measurement": "OD490 values, Mean", "setting": "L929 cell line; 25μM, third assay", "result": 1.3392},
      {"measurement": "OD490 values, Well 1", "setting": "L929 cell line; 25μM, third assay", "result": 1.3256},
      {"measurement": "OD490 values, Well 2", "setting": "L929 cell line; 25μM, third assay", "result": 1.3332},
      {"measurement": "OD490 values, Well 3", "setting": "L929 cell line; 25μM, third assay", "result": 1.3587},
      {"measurement": "OD490 values, Mean", "setting": "L929 cell line; 50μM, first assay", "result": 1.0589},
      {"measurement": "OD490 values, Well 1", "setting": "L929 cell line; 50μM, first assay", "result": 1.0389},
      {"measurement": "OD490 values, Well 2", "setting": "L929 cell line; 50μM, first assay", "result": 1.0906},
      {"measurement": "OD490 values, Well 3", "setting": "L929 cell line; 50μM, first assay", "result": 1.0471},
      {"measurement": "OD490 values, Mean", "setting": "L929 cell line; 50μM, second assay", "result": 1.2280},
      {"measurement": "OD490 values, Well 1", "setting": "L929 cell line; 50μM, second assay", "result": 1.2236},
      {"measurement": "OD490 values, Well 2", "setting": "L929 cell line; 50μM, second assay", "result": 1.2635},
      {"measurement": "OD490 values, Well 3", "setting": "L929 cell line; 50μM, second assay", "result": 1.1968},
      {"measurement": "OD490 values, Mean", "setting": "L929 cell line; 50μM, third assay", "result": 1.1793},
      {"measurement": "OD490 values, Well 1", "setting": "L929 cell line; 50μM, third assay", "result": 1.1416},
      {"measurement": "OD490 values, Well 2", "setting": "L929 cell line; 50μM, third assay", "result": 1.2010},
      {"measurement": "OD490 values, Well 3", "setting": "L929 cell line; 50μM, third assay", "result": 1.1952},
      {"measurement": "OD490 values, Mean", "setting": "L929 cell line; 100μM, first assay", "result": 0.6738},
      {"measurement": "OD490 values, Well 1", "setting": "L929 cell line; 100μM, first assay", "result": 0.6518},
      {"measurement": "OD490 values, Well 2", "setting": "L929 cell line; 100μM, first assay", "result": 0.6916},
      {"measurement": "OD490 values, Well 3", "setting": "L929 cell line; 100μM, first assay", "result": 0.6781},
      {"measurement": "OD490 values, Mean", "setting": "L929 cell line; 100μM, second assay", "result": 0.7959},
      {"measurement": "OD490 values, Well 1", "setting": "L929 cell line; 100μM, second assay", "result": 0.7856},
      {"measurement": "OD490 values, Well 2", "setting": "L929 cell line; 100μM, second assay", "result": 0.7958},
      {"measurement": "OD490 values, Well 3", "setting": "L929 cell line; 100μM, second assay", "result": 0.8062},
      {"measurement": "OD490 values, Mean", "setting": "L929 cell line; 100μM, third assay", "result": 0.7698},
      {"measurement": "OD490 values, Well 1", "setting": "L929 cell line; 100μM, third assay", "result": 0.8020},
      {"measurement": "OD490 values, Well 2", "setting": "L929 cell line; 100μM, third assay", "result": 0.7321},
      {"measurement": "OD490 values, Well 3", "setting": "L929 cell line; 100μM, third assay", "result": 0.7754}
    ]}
  ]
}
